Experimental data: ChEMBL document CHEMBL4346693, “Exploring the PROTAC degron candidates: OBHSA with different side chains as novel selective estrogen receptor degraders (SERDs)” (Eur J Med Chem, 2019)
Blank lines part the entries; values can stand above or below the molecule they belong to. Active and inactive are the calls of the source. The rule behind the calls is not given here.

What was measured:
[1] = molecular target: T1, Estrogen receptor (Homo sapiens) (UniProt P03372); assay: Induction of ERalpha protein degradation in human MCF7 cells at 5 uM incubated for 20 hrs by Western blot analysis relative to control; assay type: cell-based
T1 sequence (whole entry): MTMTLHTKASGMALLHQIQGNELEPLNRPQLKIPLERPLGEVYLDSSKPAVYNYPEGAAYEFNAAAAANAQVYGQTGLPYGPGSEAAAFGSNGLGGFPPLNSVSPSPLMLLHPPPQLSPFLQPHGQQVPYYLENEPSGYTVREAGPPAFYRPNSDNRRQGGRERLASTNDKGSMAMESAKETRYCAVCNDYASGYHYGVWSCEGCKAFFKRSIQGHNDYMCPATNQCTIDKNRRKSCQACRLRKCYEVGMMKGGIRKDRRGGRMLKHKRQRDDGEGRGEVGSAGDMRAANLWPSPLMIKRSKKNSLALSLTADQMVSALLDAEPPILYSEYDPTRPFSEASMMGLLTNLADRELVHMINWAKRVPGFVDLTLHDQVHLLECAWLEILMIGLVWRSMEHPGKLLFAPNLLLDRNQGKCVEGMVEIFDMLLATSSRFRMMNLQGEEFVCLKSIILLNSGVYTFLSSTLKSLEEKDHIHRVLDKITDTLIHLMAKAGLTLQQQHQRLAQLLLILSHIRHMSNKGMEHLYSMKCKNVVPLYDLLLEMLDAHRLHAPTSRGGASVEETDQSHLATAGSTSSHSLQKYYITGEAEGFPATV

[2] = molecular target: T1, Estrogen receptor (Homo sapiens); assay: Binding affinity to purified human ERalpha LBD incubated for 2 hrs by fluorescence tracer based competitive fluorometric binding assay relative to estradiol
[3] = molecular target: Estrogen receptor beta (Homo sapiens) (UniProt Q92731); assay: Binding affinity to ERbeta (unknown origin) incubated for 2 hrs by fluorescence tracer based competitive fluorometric binding assay relative to estradiol
Chain of Estrogen receptor beta (Homo sapiens) (Q92731 whole entry): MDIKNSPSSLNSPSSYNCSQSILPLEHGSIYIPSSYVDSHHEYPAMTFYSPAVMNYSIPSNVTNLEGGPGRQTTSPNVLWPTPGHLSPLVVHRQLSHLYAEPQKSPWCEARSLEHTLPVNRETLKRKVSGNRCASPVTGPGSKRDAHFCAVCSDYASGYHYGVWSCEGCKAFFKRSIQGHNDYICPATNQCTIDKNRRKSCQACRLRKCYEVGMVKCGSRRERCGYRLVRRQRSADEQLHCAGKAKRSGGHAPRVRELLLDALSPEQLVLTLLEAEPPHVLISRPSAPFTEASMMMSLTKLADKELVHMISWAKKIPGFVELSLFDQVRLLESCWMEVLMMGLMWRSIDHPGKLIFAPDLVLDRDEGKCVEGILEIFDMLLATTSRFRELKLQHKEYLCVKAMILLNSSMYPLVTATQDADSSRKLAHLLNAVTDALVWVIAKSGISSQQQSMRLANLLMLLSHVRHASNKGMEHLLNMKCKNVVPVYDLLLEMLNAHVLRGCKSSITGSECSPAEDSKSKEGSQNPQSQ

[4] = molecular target: T1, Estrogen receptor (Homo sapiens); assay: Induction of ERalpha protein degradation in human MCF7 cells assessed as ERalpha protein level at 10 uM incubated for 20 hrs by Western blot analysis relative to control; assay type: cell-based
MCF7 = assay: cells; conditions: Homo sapiens, MCF7, 72 h
Description: Antiproliferative activity against human MCF7 cells incubated for 72 hrs by MTT assay

[5] = molecular target: T1, Estrogen receptor (Homo sapiens); assay: Induction of ERalpha protein degradation in human MCF7 cells at 1 uM incubated for 20 hrs by Western blot analysis relative to control; assay type: cell-based
[6] = molecular target: T1, Estrogen receptor (Homo sapiens); assay: Induction of ERalpha protein degradation in human MCF7 cells at 0.5 uM incubated for 20 hrs by Western blot analysis; assay type: cell-based
[7] = Clearance in Sprague-Dawley rat at 3 mg/kg, iv by LC-MS/MS analysis; assay type: ADME, organism-based; conditions: in vivo
[8] = Half life in Sprague-Dawley rat at 3 mg/kg, iv by LC-MS/MS analysis; assay type: ADME, organism-based; conditions: in vivo
[9] = Cmax in Sprague-Dawley rat at 3 mg/kg, iv by LC-MS/MS analysis; assay type: ADME, organism-based; parameters: dose 3 mg/kg, route intravenous; conditions: in vivo
[10] = AUC in Sprague-Dawley rat at 3 mg/kg, iv by LC-MS/MS analysis; assay type: ADME, organism-based; conditions: in vivo
[11] = Volume of distribution at steady state in Sprague-Dawley rat at 3 mg/kg, iv by LC-MS/MS analysis; assay type: ADME, organism-based; conditions: in vivo, read-out: Vdss
[12] = Half life in Sprague-Dawley rat at 10 mg/kg, po by LC-MS/MS analysis; assay type: ADME, organism-based; conditions: in vivo
[13] = Cmax in Sprague-Dawley rat at 10 mg/kg, po by LC-MS/MS analysis; assay type: ADME, organism-based; parameters: dose 10 mg/kg, route oral; conditions: in vivo
[14] = AUC in Sprague-Dawley rat at 10 mg/kg, po by LC-MS/MS analysis; assay type: ADME, organism-based; conditions: in vivo
[15] = Oral bioavailability in Sprague-Dawley rat at 10 mg/kg by LC-MS/MS analysis; assay type: ADME, organism-based; conditions: in vivo

- Activity [1]: 100%
SMILES: COc1ccc(N(CC(F)(F)F)S(=O)(=O)[C@H]2C[C@H]3O[C@@H]2C(c2ccc(O)cc2)=C3c2ccc(O)cc2)cc1

SMILES: CCN(c1ccc(OCCCCCCC(=O)O)cc1)S(=O)(=O)[C@H]1C[C@H]2O[C@@H]1C(c1ccc(O)cc1)=C2c1ccc(O)cc1 (relative stereo)
- RBA [2]: 1.22%
- RBA [3]: 0.41%
- Activity [4]: 92%
- IC50 (MCF7): > 50 µM

SMILES: CCN(c1ccccc1)S(=O)(=O)[C@H]1C[C@H]2O[C@@H]1C(c1ccc(OCCCCCCCCCCC(=O)O)cc1)=C2c1ccc(O)cc1 (relative stereo)
- RBA [2]: 0.93%
- RBA [3]: 0.13%
- Activity [4]: 51%
- IC50 (MCF7): 10.3 µM

SMILES: CCN(c1ccccc1)S(=O)(=O)[C@H]1C[C@H]2O[C@@H]1C(c1ccc(OCC(O)CO)cc1)=C2c1ccc(O)cc1 (relative stereo)
- RBA [2]: 0.26%
- RBA [3]: 0.28%
- Activity [4]: 117%
- IC50 (MCF7): 33.6 µM

SMILES: CCN(c1ccccc1)S(=O)(=O)[C@H]1C[C@H]2O[C@@H]1C(c1ccc(OCCCCCCCC(=O)O)cc1)=C2c1ccc(O)cc1 (relative stereo)
- RBA [2]: 1.2%
- RBA [3]: 0.4%
- Activity [4]: 79%
- IC50 (MCF7): 27.4 µM

SMILES: COc1ccc(N(CC(F)(F)F)S(=O)(=O)[C@H]2C[C@H]3O[C@@H]2C(c2ccc(OCCCCCCCCCCC(=O)O)cc2)=C3c2ccc(O)cc2)cc1 (relative stereo)
- RBA [2]: 0.06%
- RBA [3]: 0.7%
- Activity [4]: 83%
- IC50 (MCF7): 14.3 µM

SMILES: CCN(c1ccc(OCCCCCCCCCCC(=O)O)cc1)S(=O)(=O)[C@H]1C[C@H]2O[C@@H]1C(c1ccc(O)cc1)=C2c1ccc(O)cc1 (relative stereo)
- RBA [2]: 0.57%
- RBA [3]: < 0.01%
- Activity [4]: 29%
- IC50 (MCF7): 18.4 µM

SMILES: CCN(c1ccccc1)S(=O)(=O)[C@H]1C[C@H]2O[C@@H]1C(c1ccc(OCCN3CCCCC3)cc1)=C2c1ccc(O)cc1 (relative stereo)
- RBA [2]: 2.51%
- RBA [3]: 0.81%
- Activity [4]: 95%
- IC50 (MCF7): 12.9 µM

SMILES: CCN(c1ccc(OCC(O)CO)cc1)S(=O)(=O)[C@H]1C[C@H]2O[C@@H]1C(c1ccc(O)cc1)=C2c1ccc(O)cc1 (relative stereo)
- RBA [2]: 0.46%
- RBA [3]: 0.53%
- Activity [4]: 63%
- IC50 (MCF7): 32.3 µM

SMILES: CC/C(=C(\c1ccc(O)cc1)c1ccc(OCCN(C)C)cc1)c1ccccc1 [AFIMOXIFENE]
- IC50 (MCF7): 10.1 µM

SMILES: CCN(c1ccc(OCCCCCCCC(=O)O)cc1)S(=O)(=O)[C@H]1C[C@H]2O[C@@H]1C(c1ccc(O)cc1)=C2c1ccc(O)cc1 (relative stereo)
- RBA [2]: 3.21%
- RBA [3]: 0.42%
- Activity [4]: 78%
- IC50 (MCF7): 24.9 µM

SMILES: O=S(=O)([C@H]1C[C@H]2O[C@@H]1C(c1ccc(OCC(O)CO)cc1)=C2c1ccc(O)cc1)N(CC(F)(F)F)c1ccc(Cl)cc1 (relative stereo)
- RBA [2]: 1.62%
- RBA [3]: < 0.01%
- Activity [4]: 38%
- IC50 (MCF7): 16.8 µM

SMILES: COc1ccc(N(CC(F)(F)F)S(=O)(=O)[C@H]2C[C@H]3O[C@@H]2C(c2ccc(OCCN4CCCC4)cc2)=C3c2ccc(O)cc2)cc1 (relative stereo)
- RBA [2]: 2.12%
- RBA [3]: 1.81%
- Activity [4]: 1%
- Activity [5]: 100%
- Activity [6]: Active
- clearance [7]: 46 mL/min/kg
- half-life [8]: 6.2 h
- Cmax [9]: 1000 ng/mL
- AUC [10]: 1080 ng·h/mL
- Vd [11]: 9.55 L/kg
- half-life [12]: 3.7 h
- Cmax [13]: 50 ng/mL
- AUC [14]: 330 ng·h/mL
- bioavailability [15]: 9.2%
- IC50 (MCF7): 6.1 µM

SMILES: COc1ccc(N(CC(F)(F)F)S(=O)(=O)[C@H]2C[C@H]3O[C@@H]2C(c2ccc(OCCCCCCCC(=O)O)cc2)=C3c2ccc(O)cc2)cc1 (relative stereo)
- RBA [2]: 0.07%
- RBA [3]: < 0.01%
- Activity [4]: 42%
- IC50 (MCF7): 40.3 µM

SMILES: CCN(c1ccc(OCCN2CCCCC2)cc1)S(=O)(=O)[C@H]1C[C@H]2O[C@@H]1C(c1ccc(O)cc1)=C2c1ccc(O)cc1 (relative stereo)
- RBA [2]: 0.58%
- RBA [3]: 0.25%
- Activity [4]: 89%
- IC50 (MCF7): 5.4 µM

SMILES: CN(c1ccccc1)S(=O)(=O)[C@H]1C[C@H]2O[C@@H]1C(c1ccc(OCCN3CCCCC3)cc1)=C2c1ccc(O)cc1 (relative stereo)
- RBA [2]: 0.95%
- RBA [3]: 0.79%
- Activity [4]: 98%
- IC50 (MCF7): 15.2 µM

SMILES: COc1ccc(N(CC(F)(F)F)S(=O)(=O)[C@H]2C[C@H]3O[C@@H]2C(c2ccc(OCCCCCCC(=O)O)cc2)=C3c2ccc(O)cc2)cc1 (relative stereo)
- RBA [2]: 1.82%
- RBA [3]: 0.13%
- Activity [4]: 32%
- IC50 (MCF7): 15.9 µM
